PubChem BioAssay (NCI)
Several values for one entry are separate records, joined by “and”; a condition that tells them apart may be missing. Equal entries are not always repeated.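 Values below derive from 48-hour exposures of cells grown in 96-well plates, with endpoints linearly interpolated between the two concentrations bracketing the appropriate inhibition level. GI50: concentration for 50% inhibition of growth. The concentration for full growth arrest is given as TGI.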

How the values were obtained:
Assay in all cases: NCI-60 cell line screen, 48 h
UACC-257 melanoma = system: UACC-257 melanoma
MCF7 breast = system: MCF7 breast
OVCAR-4 ovarian = system: OVCAR-4 ovarian
SK-MEL-5 melanoma = system: SK-MEL-5 melanoma
MOLT-4 leukemia = system: MOLT-4 leukemia
RPMI-8226 leukemia = system: RPMI-8226 leukemia
NCI-H226 lung = system: NCI-H226 lung
NCI-H522 lung = system: NCI-H522 lung
DU-145 prostate = system: DU-145 prostate
COLO 205 colon = system: COLO 205 colon
OVCAR-8 ovarian = system: OVCAR-8 ovarian
LOX IMVI melanoma = system: LOX IMVI melanoma
BT-549 breast = system: BT-549 breast

Row | SMILES | TGI (UACC-257 melanoma) | TGI (MCF7 breast) | TGI (OVCAR-4 ovarian) | TGI (SK-MEL-5 melanoma) | TGI (MOLT-4 leukemia) | TGI (RPMI-8226 leukemia) | TGI (NCI-H226 lung) | TGI (NCI-H522 lung) | TGI (DU-145 prostate) | TGI (COLO 205 colon) | TGI (OVCAR-8 ovarian) | TGI (LOX IMVI melanoma) | TGI (BT-549 breast) | GI50 (OVCAR-4 ovarian) | GI50 (RPMI-8226 leukemia) | GI50 (NCI-H522 lung)
1 | Cc1cc(=O)n2nc(CSc3n[nH]c(=S)s3)sc2n1 | > 100 µM | > 100 µM | > 100 µM | > 100 µM | > 100 µM | > 100 µM | > 100 µM | > 100 µM | > 100 µM | > 100 µM | > 100 µM | > 100 µM | > 100 µM |  |  | 
2 | COc1ncc(C#CC(=O)c2ccccc2)c(OC)n1 | 14.7 µM | 1.96 µM | 12.9 µM | 6.68 µM | 2.38 µM | > 21.9 µM | 5.46 µM | 2.81 µM | 19.7 µM | 5.08 µM | 8.72 µM | 3 µM | 5.33 µM |  |  | 
3 | C=C(C)C1CC2=C(O1)C(=O)c1cccc(O)c1C2=O (stereo unspecified) | 1.01 µM | 1.96 µM | 0.926 µM | 0.304 µM | 0.422 µM | 1.22 µM | 3.46 µM | 1.73 µM | 3.15 µM | 3.25 µM | 1.81 µM | > 22.8 µM | 1.63 µM |  |  | 
4 | COc1ccc(-c2nc(SC)n(C3OC(COC(C)=O)C(OC(C)=O)C(OC(C)=O)C3OC(C)=O)c(=O)c2C#N)cc1 (stereo unspecified) | > 100 µM | > 100 µM | > 100 µM | > 100 µM | > 100 µM | > 100 µM | > 100 µM | 72.7 µM and > 100 µM | > 100 µM | > 100 µM | > 100 µM | > 100 µM | > 100 µM | 29.3 µM and > 100 µM | 47.4 µM and > 100 µM | 18.7 µM and > 100 µM
5 | Fc1cc2nc3n(c2cc1F)C(c1c(Cl)cccc1Cl)SC3 (stereo unspecified) | 27 µM | 33.1 µM | 30.1 µM | 20.4 µM | > 100 µM | 36.5 µM | 45.7 µM | 35.1 µM | 32.2 µM | 36.3 µM | 29.5 µM | 31.7 µM | 40.3 µM |  |  | 
6 | COc1ccc(Br)c(C=Nc2cccc3cc(OC)c(OC)cc23)c1 | > 100 µM | > 100 µM | > 100 µM | > 94.9 µM | > 62.4 µM | > 46.3 µM | > 100 µM | > 100 µM | > 100 µM | > 100 µM | > 59.9 µM | 19.2 µM | > 46 µM |  |  | 
7 | CC(C)C[C@H](NC(=O)CCc1cccc2ccccc12)B(O)O | 3.91 µM | > 52 µM | 29 µM | 1.85 µM | 3.86 µM | 3.95 µM | 0.392 µM | 4.95 µM | > 65.6 µM | 36.3 µM | 19.6 µM | 1.77 µM | 2.15 µM |  |  | 
8 | CC1(C)CN=C(Nc2ccc(F)c(Cl)c2)S1 | > 100 µM | > 100 µM | > 100 µM | > 100 µM | > 100 µM | > 100 µM | > 100 µM | > 100 µM | > 100 µM | > 100 µM | > 100 µM | > 100 µM | > 100 µM |  |  | 
9 | CCSc1nc(C)nc2c1sc1nc3ccccc3n12 | > 100 µM | > 100 µM | > 100 µM | > 100 µM | > 100 µM | > 100 µM | > 100 µM | > 100 µM | > 100 µM | > 100 µM | > 100 µM | > 100 µM | > 100 µM |  |  | 
10 | COC(=O)C1SC[C@H]2C(=O)N(c3ccccc3)C(=O)N12 (stereo partly specified) | > 100 µM | > 100 µM | > 100 µM | > 100 µM | > 100 µM | > 100 µM | > 100 µM | > 100 µM | > 100 µM | > 100 µM | > 100 µM | > 100 µM | > 100 µM |  |  | 
11 | C[C@H]1[C@H](C)CC[C@]2(C(=O)OC3OC(CO)C(O)C(O)C3O)CC[C@]3(C)C(=CC[C@@H]4[C@@]5(C)C[C@@H](O)[C@@H]6OC(=O)c7cc(O)c(O)c(O)c7-c7c(cc(O)c(O)c7O)C(=O)OC[C@]6(CO)[C@@H]5CC[C@]43C)[C@H]12 (stereo partly specified) | > 100 µM | 21.8 µM | 40.1 µM | > 100 µM | 66.9 µM | > 100 µM | > 100 µM | 37.3 µM | > 100 µM | > 100 µM | > 100 µM | 25.8 µM | > 100 µM |  |  | 
12 | CN(C(=O)c1ccc(Cl)cc1)C(=S)N1CCN(c2ccccc2)CC1 | > 100 µM | > 100 µM | > 100 µM | > 100 µM | > 100 µM | > 100 µM | > 100 µM | > 100 µM | > 100 µM | > 100 µM | > 100 µM | > 100 µM | > 100 µM |  |  | 
13 | CS(=O)(=O)CCC(N)P(=O)(O)O (stereo unspecified) | > 100 µM | > 100 µM | > 100 µM | > 100 µM | > 100 µM | > 100 µM | > 100 µM | > 100 µM | > 100 µM | > 100 µM | > 100 µM | > 100 µM | > 100 µM |  |  | 
14 | CN(/N=C/c1ccccc1C(=O)O)C1=NCCCCN1 | > 100 µM | > 100 µM | > 100 µM | > 100 µM | > 100 µM | > 100 µM | > 100 µM | 36.7 µM | > 100 µM | > 100 µM | > 100 µM | > 100 µM | > 100 µM |  |  | 
15 | Nc1ncnc2c1cnn2COCC(O)CO (stereo unspecified) | > 100 µM | > 100 µM | > 100 µM | > 100 µM | > 100 µM | > 100 µM | > 100 µM | > 100 µM | > 100 µM | > 100 µM | > 100 µM | > 100 µM | > 100 µM |  |  | 
16 | FC(F)(F)C1(c2ccccc2)SCc2nc3ccccc3n21 (stereo unspecified) | > 100 µM | > 100 µM | > 100 µM | > 100 µM | > 100 µM | > 100 µM | > 100 µM | > 100 µM | > 100 µM | > 100 µM | > 100 µM | > 100 µM | > 100 µM |  |  | 
